# Measurements from US20240100050A1, “MDM2 INHIBITORS AND USES THEREOF” (PMV Pharmaceuticals, Inc., priority 2022, published 2024).
# Key:
# SJSA1 tumors = assay: Intratumoral dosing regimens of navtemadlin in SJSA1 tumors: tumor volume / % tumor inhibition; format: in vivo, human; settings: for % TGI Day 24: compared to the vehicle
# Experimental: A study was conducted to compare differences between dosing regimens of navtemadlin administered to SJSA1 tumors. S.ISa-1 is a human […] cell line. Navtemadlin is an MDM2 inhibitor compound of the disclosure. […]
# (§1) FIG. 2 panels A and B show the effects of intratumoral dosing regimens of navtemadlin in SJSA1 tumors, such as on tumor volume (mm 3) and % body weight change.
# [1] = % body weight change in the SJSA1 tumor dosing regimen study; format: in vivo; settings: SJSA1 tumors
# Experimental: A study was conducted to compare differences between dosing regimens of navtemadlin administered to SJSA1 tumors. S.ISa-1 is a human […] cell line. Navtemadlin is an MDM2 inhibitor compound of the disclosure. Navtemadlin was administered intratumorally as 20 μL of 100 mg/mL navtemadlin Q3D×9, 20 μL of 100 mg/mL navtemadlin Q7D×5, 20 μL of 100 mg/mL navtemadlin Q14D×3, and 20 μL of 25 mg/mL navtemadlin QD×31.
# as §1
# [2] = intratumorally 20 μL of 25 mg/mL QD×31
# [3] = intratumorally 20 μL of 100 mg/mL Q3D×9
# [4] = intratumorally 20 μL of 100 mg/mL Q7D×5
# [5] = intratumorally 20 μL of 100 mg/mL Q14D×3
smiles,measurement,setting,value
CC(C)[C@@H](CS(=O)(=O)C(C)C)N1C(=O)[C@@](C)(CC(=O)O)C[C@H](c2cccc(Cl)c2)[C@H]1c1ccc(Cl)cc1 [navtemadlin],% TGI Day 24,SJSA1 tumors; Q3Dx21 IT,94%
same,% TGI Day 24,SJSA1 tumors; Q7Dx21 IT,94%
same,% TGI Day 24,SJSA1 tumors; Q14Dx21 IT,94%
same,% TGI Day 24,SJSA1 tumors; QDx21 PO,94%
same,tumor volume,SJSA1 tumors; [2],significant tumor volume reduction
same,tumor volume,SJSA1 tumors; [3],significant tumor volume reduction
same,tumor volume,SJSA1 tumors; [4],significant tumor volume reduction
same,tumor volume,SJSA1 tumors; [5],significant tumor volume reduction
same,% body weight change,[1]; [2],not significantly affecting % body weight change
same,% body weight change,[1]; [3],not significantly affecting % body weight change
same,% body weight change,[1]; [4],not significantly affecting % body weight change
same,% body weight change,[1]; [5],not significantly affecting % body weight change
